This is an account of results in EP0420552A2, “New antifungal antibiotic, and the production and uses of same” (ZAIDAN HOJIN BISEIBUTSU KAGAKU KENKYU KAI, priority 1989, dated 1991).

One series concerns Xanthomonas citri. The experiment in a line: MIC by standard serial dilution method on nutrient agar. The class given is cell-based. The settings on record: 42 h, pH 7, read-out: Minimum inhibitory concentrations.
Series [1] relates to Trichophyton mentagrophytes (883). The series is described as above. The series is classed as cell-based. To be noted: nutrient agar medium containing 1% glucose (pH 7.0), 27°C, 42 hours, read-out: Minimum inhibitory concentrations. How it is done:
(§1) The minimum inhibitory concentrations (MIC., mcg/ml) of dexylosylbenanomicin A against a variety of fungi were determined by a standard serial dilution method on a nutrient agar medium containing 1% glucose (pH 7.0) after incubation at 27°C for 42 hours and are shown in Table 1 below.

A further series relates to Aspergillus niger F-16. Described as above. The class given is cell-based. The settings on record: F16, nutrient agar medium containing 1% glucose (pH 7.0), 27°C, 42 hours, read-out: Minimum inhibitory concentrations. The protocol:
as §1

In series [2] the test system is Trichophyton asteroides 429. Described as above. The class given is cell-based. To be noted: nutrient agar medium containing 1% glucose (pH 7.0), 27°C, 42 hours, read-out: Minimum inhibitory concentrations. The protocol: as §1
The subject of the next series is Candida Yu-1200. The description is as above. The settings on record: YU1200, nutrient agar medium containing 1% glucose (pH 7.0), 27°C, 42 hours, read-out: Minimum inhibitory concentrations. The class given is cell-based. The protocol: as §1
The subject of series [3] is Cryptococcus neoformans F-10. The series is described as above. The series is classed as cell-based. To be noted: F10, nutrient agar medium containing 1% glucose (pH 7.0), 27°C, 42 hours, read-out: Minimum inhibitory concentrations. How it is done:
as §1

The next series concerns Pellicularia sasakii. Described as above. The class given is cell-based. The settings on record: nutrient agar medium containing 1% glucose (pH 7.0), 27°C, 42 hours, read-out: Minimum inhibitory concentrations. The protocol:
as §1

A further series concerns Candida albicans 3147. The description is as above. The series is classed as cell-based. To be noted: nutrient agar medium containing 1% glucose (pH 7.0), 27°C, 42 hours, read-out: Minimum inhibitory concentrations. How it is done: as §1
Series [4] deals with Candida pseudotropicalis F-2. The series is described as above. The series is classed as cell-based. The settings on record: Kluyveromyces marxianus, F2, nutrient agar medium containing 1% glucose (pH 7.0), 27°C, 42 hours, read-out: Minimum inhibitory concentrations. How it is done:
as §1

Series [5] has as its system Saccharomyces cerivisiae F-7. Described as above. The class given is cell-based. The settings on record: F7, nutrient agar medium containing 1% glucose (pH 7.0), 27°C, 42 hours, read-out: Minimum inhibitory concentrations. The protocol:
as §1

In another series the test system is Candida krusei F-5. The description is as above. The class given is cell-based. The settings on record: Pichia kudriavzevii, F5, nutrient agar medium containing 1% glucose (pH 7.0), 27°C, 42 hours, read-out: Minimum inhibitory concentrations. How it is done: as §1
Another series relates to Candida tropicalis F-1. Described as above. The class given is cell-based. To be noted: F1, nutrient agar medium containing 1% glucose (pH 7.0), 27°C, 42 hours, read-out: Minimum inhibitory concentrations. How it is done:
as §1

For the next series, the system named is Pyricularia oryzae. Put plainly: microbe, parasite or virus in culture. The series is classed as cell-based. To be noted: 42 h, pH 7, read-out: Minimum inhibitory concentrations.
The nature of series [6]: Acute toxicity in mice upon intravenous administration. The series is classed as in vivo. The settings on record: ICR mice (female, 4-week old, body weight of 19 to 21 g). The protocol: Dexylosylbenanomicin A is of low toxicity to mammals, as it was shown that for estimation of acute toxicity in mice upon intravenous administration, dexylosylbenanomicin A was administered via the intravenous route to ICR mice (female, 4-week old, body weight of 19 to 21 g), the mice tolerated a dosage of 300 mg/kg of this new antibiotic.

In the next series the test system is Cochliobolus miyabeanus. Put plainly: MIC by standard serial dilution method on nutrient agar. The class given is cell-based. The settings on record: Bipolaris oryzae, 42 h, pH 7, read-out: Minimum inhibitory concentrations.
Series [7] can be described thus: Solubility in organic solvents.
The test system of a further series is Xanthomonas oryzae. The experiment in a line: microbe, parasite or virus in culture. The settings on record: 42 h, pH 7, read-out: Minimum inhibitory concentrations. The series is classed as cell-based.

Molecules are shown by their SMILES. Converted amounts (≈) assume the structure as drawn.

As for `COc1cc(O)c2c(c1)C(=O)c1c(cc3c(c1O)-c1c(cc(C)c(C(=O)N[C@H](C)C(=O)O)c1O)[C@H](O[C@@H]1O[C@H](C)[C@H](O)[C@H](O)[C@H]1O)[C@H]3O)C2=O` [dexylosylbenanomicin A], the MIC with Xanthomonas citri is more than 100 µg/mL; in series [1] it was more than 25 µg/mL; in the series on Aspergillus niger F-16, 50 µg/mL (≈ 71.9 µM); in [2], more than 25 µg/mL; in the series with Candida Yu-1200, 6.25 µg/mL (≈ 8.98 µM); in series [3], 12.5 µg/mL (≈ 18 µM). Further, the MIC in the series on Pellicularia sasakii came to 25 µg/mL (≈ 35.9 µM); in the series on Candida albicans 3147, 12.5 µg/mL (≈ 18 µM); in [4], 3.13 µg/mL (≈ 4.5 µM); in series [5] it was 3.13 µg/mL (≈ 4.5 µM); in the series on Candida krusei F-5, 50 µg/mL (≈ 71.9 µM); in the series on Candida tropicalis F-1, 12.5 µg/mL (≈ 18 µM). Also, the MIC in the series with Pyricularia oryzae is 50 µg/mL (≈ 71.9 µM); in the series on Cochliobolus miyabeanus, more than 25 µg/mL; with Xanthomonas oryzae it was 100 µg/mL (≈ 144 µM). For the same compound, the “acute toxicity: tolerated dosage” value in series [6] was found to be 300 mg/kg. In addition, the Solubility entry in [7] (in chloroform, ethyl acetate, acetone and methanol) is recorded as “Sparingly soluble”; in series [7] (in dimethyl sulfoxide and N,N-dimethylformamide), “soluble”.
